Test results reported in the NIST ThermoML archive (doi:10.1016/j.tca.2013.08.031).
± gives the expanded uncertainty stated by the source.

Assay: molar heat capacity at constant volume
Conditions: Fluid (supercritical or subcritical phases), Vacuum adiabatic calorimetry

CCC(C)O (stereo unspecified) [butan-2-ol]
Conditions	molar heat capacity at constant volume [J/K/mol]
538.48 K, Mass density=279.19 kg/m3	275.36 ± 2.7
538.48 K, Mass density=284.93 kg/m3	266.32 ± 2.7
538.48 K, Mass density=286.65 kg/m3	296.63 ± 3
538.48 K, Mass density=301.19 kg/m3	256.46 ± 3
538.66 K, Mass density=117 kg/m3	318.5 ± 4.1
538.66 K, Mass density=284.93 kg/m3	265.65 ± 2.7
538.66 K, Mass density=286.65 kg/m3	296.86 ± 3
538.66 K, Mass density=301.19 kg/m3	250.53 ± 2.2
538.84 K, Mass density=117 kg/m3	306.2 ± 4.6
538.84 K, Mass density=286.65 kg/m3	297.08 ± 3
539.03 K, Mass density=286.65 kg/m3	296.34 ± 3
539.57 K, Mass density=286.65 kg/m3	285.07 ± 2.9
539.76 K, Mass density=279.19 kg/m3	283.52 ± 2.9
539.76 K, Mass density=286.65 kg/m3	288.78 ± 2.9
539.94 K, Mass density=184.89 kg/m3	261.35 ± 2.7
539.94 K, Mass density=276.45 kg/m3	295.89 ± 3
539.94 K, Mass density=279.19 kg/m3	284.48 ± 2.9
539.94 K, Mass density=286.65 kg/m3	282.33 ± 2.9
540.12 K, Mass density=184.89 kg/m3	273.06 ± 2.7
540.12 K, Mass density=276.45 kg/m3	293.89 ± 3
540.12 K, Mass density=279.19 kg/m3	283.74 ± 2.9
540.12 K, Mass density=286.65 kg/m3	282.03 ± 2.8
540.12 K, Mass density=403.55 kg/m3	223.85 ± 2.2
540.3 K, Mass density=184.89 kg/m3	272.25 ± 2.7
540.3 K, Mass density=276.45 kg/m3	297.6 ± 3
540.3 K, Mass density=286.65 kg/m3	280.4 ± 2.8
540.3 K, Mass density=403.55 kg/m3	225.33 ± 2.2
540.48 K, Mass density=184.89 kg/m3	275.73 ± 2.8
540.48 K, Mass density=276.45 kg/m3	293.15 ± 3
540.48 K, Mass density=403.55 kg/m3	226.81 ± 2.2
540.67 K, Mass density=184.89 kg/m3	280.18 ± 2.8
540.67 K, Mass density=279.19 kg/m3	274.92 ± 2.7
540.67 K, Mass density=403.55 kg/m3	223.85 ± 2.2
540.85 K, Mass density=184.89 kg/m3	275.21 ± 2.8
540.85 K, Mass density=279.19 kg/m3	281.29 ± 2.8
540.85 K, Mass density=403.55 kg/m3	223.11 ± 2.2
541.03 K, Mass density=279.19 kg/m3	276.47 ± 2.8
541.03 K, Mass density=403.55 kg/m3	220.88 ± 2.2
541.21 K, Mass density=279.19 kg/m3	278.4 ± 2.8
541.4 K, Mass density=279.19 kg/m3	276.92 ± 2.8
542.67 K, Mass density=301.19 kg/m3	240.15 ± 2.2
542.85 K, Mass density=301.19 kg/m3	240.9 ± 2.2
543.03 K, Mass density=301.19 kg/m3	240.15 ± 2.2
547.21 K, Mass density=286.65 kg/m3	273.21 ± 2.7
547.39 K, Mass density=286.65 kg/m3	272.69 ± 2.7
547.57 K, Mass density=284.93 kg/m3	247.34 ± 2.5
547.57 K, Mass density=286.65 kg/m3	276.33 ± 2.8
547.75 K, Mass density=284.93 kg/m3	250.31 ± 2.5
547.75 K, Mass density=286.65 kg/m3	276.62 ± 2.8
547.93 K, Mass density=284.93 kg/m3	248.31 ± 2.5
547.93 K, Mass density=286.65 kg/m3	276.1 ± 2.8
548.11 K, Mass density=284.93 kg/m3	247.79 ± 2.5
548.11 K, Mass density=286.65 kg/m3	276.33 ± 2.8
548.11 K, Mass density=347.06 kg/m3	235.71 ± 2.2
548.29 K, Mass density=284.93 kg/m3	248.68 ± 2.5
548.29 K, Mass density=286.65 kg/m3	278.03 ± 2.8
548.29 K, Mass density=347.06 kg/m3	236.45 ± 2.2
548.47 K, Mass density=284.93 kg/m3	248.31 ± 2.5
548.47 K, Mass density=286.65 kg/m3	278.55 ± 2.8
548.47 K, Mass density=347.06 kg/m3	235.71 ± 2.2
548.65 K, Mass density=286.65 kg/m3	278.03 ± 2.8
548.65 K, Mass density=347.06 kg/m3	234.22 ± 2.2
550.28 K, Mass density=284.93 kg/m3	236.74 ± 2.4
550.46 K, Mass density=284.93 kg/m3	238.08 ± 2.4
550.46 K, Mass density=403.55 kg/m3	218.66 ± 2.2
550.64 K, Mass density=403.55 kg/m3	217.92 ± 2.2
550.82 K, Mass density=284.93 kg/m3	236.52 ± 2.4
550.82 K, Mass density=403.55 kg/m3	220.88 ± 2.2
551 K, Mass density=284.93 kg/m3	236.3 ± 2.4
551 K, Mass density=403.55 kg/m3	220.88 ± 2.2
551.18 K, Mass density=403.55 kg/m3	220.14 ± 2.2
551.36 K, Mass density=403.55 kg/m3	220.88 ± 2.2
557.3 K, Mass density=286.65 kg/m3	252.16 ± 2.5
557.3 K, Mass density=347.06 kg/m3	220.14 ± 2.2
557.48 K, Mass density=286.65 kg/m3	253.13 ± 2.5
557.48 K, Mass density=347.06 kg/m3	220.88 ± 2.2
557.66 K, Mass density=286.65 kg/m3	251.94 ± 2.5
557.66 K, Mass density=347.06 kg/m3	217.92 ± 2.2
557.84 K, Mass density=286.65 kg/m3	252.16 ± 2.5
557.84 K, Mass density=347.06 kg/m3	220.14 ± 2.2
558.02 K, Mass density=286.65 kg/m3	253.64 ± 2.6
558.2 K, Mass density=284.93 kg/m3	236.45 ± 2.4
558.2 K, Mass density=286.65 kg/m3	258.98 ± 2.6
558.38 K, Mass density=284.93 kg/m3	243.27 ± 2.4
558.38 K, Mass density=286.65 kg/m3	261.43 ± 2.7
558.56 K, Mass density=284.93 kg/m3	241.49 ± 2.4
558.56 K, Mass density=286.65 kg/m3	257.05 ± 2.6
558.74 K, Mass density=284.93 kg/m3	241.71 ± 2.4
558.74 K, Mass density=286.65 kg/m3	258.02 ± 2.6
558.92 K, Mass density=284.93 kg/m3	246.38 ± 2.5
558.92 K, Mass density=286.65 kg/m3	259.28 ± 2.6
559.09 K, Mass density=286.65 kg/m3	264.39 ± 2.7
559.27 K, Mass density=286.65 kg/m3	254.83 ± 2.6
559.45 K, Mass density=286.65 kg/m3	252.68 ± 2.5
559.63 K, Mass density=286.65 kg/m3	264.39 ± 2.7
560.64 K, Mass density=284.93 kg/m3	246.75 ± 2.5
560.89 K, Mass density=286.65 kg/m3	262.17 ± 2.7
561.24 K, Mass density=286.65 kg/m3	254.83 ± 2.6
561.42 K, Mass density=286.65 kg/m3	257.28 ± 2.6
561.6 K, Mass density=286.65 kg/m3	257.79 ± 2.6
561.78 K, Mass density=286.65 kg/m3	256.83 ± 2.6
561.96 K, Mass density=286.65 kg/m3	257.57 ± 2.6
562.14 K, Mass density=286.65 kg/m3	257.05 ± 2.6
562.32 K, Mass density=286.65 kg/m3	258.98 ± 2.6
562.49 K, Mass density=286.65 kg/m3	254.61 ± 2.6
562.67 K, Mass density=286.65 kg/m3	256.61 ± 2.6
